From ChEMBL document CHEMBL4507296 (2021)

Key:
[1] = target: Phosphatidylinositol 4,5-bisphosphate 3-kinase catalytic subunit delta isoform (Homo sapiens) (UniProt O00329); details: Compound concentration 1000.0 nM
[2] = target: Serine/threonine-protein kinase 17B (Homo sapiens) (UniProt O94768); details: Compound concentration 1000.0 nM
[3] = target: Serine/threonine-protein kinase BRSK2 (Homo sapiens) (UniProt Q8IWQ3); details: Compound concentration 1000.0 nM
[4] = test system: ALK tyrosine kinase receptor (Homo sapiens), Q9UM73 [C1156Y]; details: Compound concentration 1000.0 nM
[5] = target: MAP kinase-activated protein kinase 5 (Homo sapiens) (UniProt Q8IW41); details: Compound concentration 1000.0 nM
[6] = target: Tyrosine-protein kinase Srms (Homo sapiens) (UniProt Q9H3Y6); details: Compound concentration 1000.0 nM
[7] = target: Phosphatidylinositol 4,5-bisphosphate 3-kinase catalytic subunit gamma isoform (Homo sapiens) (UniProt P48736); details: Compound concentration 1000.0 nM
[8] = target: Proto-oncogene tyrosine-protein kinase ROS (Homo sapiens) (UniProt P08922); details: Compound concentration 1000.0 nM
[9] = target: Focal adhesion kinase 1 (Homo sapiens) (UniProt Q05397); details: Compound concentration 1000.0 nM
[10] = target: Mitogen-activated protein kinase 10 (Homo sapiens) (UniProt P53779); details: Compound concentration 1000.0 nM
[11] = target: Calcium/calmodulin-dependent protein kinase type II subunit alpha (Homo sapiens) (UniProt Q9UQM7); details: Compound concentration 1000.0 nM
[12] = target: Mitogen-activated protein kinase kinase kinase 13 (Homo sapiens) (UniProt O43283); details: Compound concentration 1000.0 nM
[13] = target: Casein kinase I isoform gamma-3 (Homo sapiens) (UniProt Q9Y6M4); details: Compound concentration 1000.0 nM
[14] = target: Serine/threonine-protein kinase SIK1 (Homo sapiens) (UniProt P57059); details: Compound concentration 1000.0 nM
[15] = target: Serine/threonine-protein kinase PLK4 (Homo sapiens) (UniProt O00444); details: Compound concentration 1000.0 nM
[16] = target: Dual specificity mitogen-activated protein kinase kinase 3 (Homo sapiens) (UniProt P46734); details: Compound concentration 1000.0 nM
Sequence of Dual specificity mitogen-activated protein kinase kinase 3 (Homo sapiens) (P46734 whole entry): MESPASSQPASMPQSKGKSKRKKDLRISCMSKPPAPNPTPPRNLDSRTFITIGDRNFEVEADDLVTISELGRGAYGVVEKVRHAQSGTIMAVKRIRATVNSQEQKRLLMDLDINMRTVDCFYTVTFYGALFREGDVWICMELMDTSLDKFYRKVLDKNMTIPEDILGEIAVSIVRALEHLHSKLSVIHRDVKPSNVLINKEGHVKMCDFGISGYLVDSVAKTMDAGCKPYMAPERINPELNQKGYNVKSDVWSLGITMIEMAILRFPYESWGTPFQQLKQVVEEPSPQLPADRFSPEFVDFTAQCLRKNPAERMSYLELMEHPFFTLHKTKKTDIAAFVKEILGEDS

[17] = target: Serine/threonine-protein kinase 33 (Homo sapiens) (UniProt Q9BYT3); details: Compound concentration 1000.0 nM
Sequence of Serine/threonine-protein kinase 33 (Homo sapiens) (Q9BYT3 whole entry, looked up): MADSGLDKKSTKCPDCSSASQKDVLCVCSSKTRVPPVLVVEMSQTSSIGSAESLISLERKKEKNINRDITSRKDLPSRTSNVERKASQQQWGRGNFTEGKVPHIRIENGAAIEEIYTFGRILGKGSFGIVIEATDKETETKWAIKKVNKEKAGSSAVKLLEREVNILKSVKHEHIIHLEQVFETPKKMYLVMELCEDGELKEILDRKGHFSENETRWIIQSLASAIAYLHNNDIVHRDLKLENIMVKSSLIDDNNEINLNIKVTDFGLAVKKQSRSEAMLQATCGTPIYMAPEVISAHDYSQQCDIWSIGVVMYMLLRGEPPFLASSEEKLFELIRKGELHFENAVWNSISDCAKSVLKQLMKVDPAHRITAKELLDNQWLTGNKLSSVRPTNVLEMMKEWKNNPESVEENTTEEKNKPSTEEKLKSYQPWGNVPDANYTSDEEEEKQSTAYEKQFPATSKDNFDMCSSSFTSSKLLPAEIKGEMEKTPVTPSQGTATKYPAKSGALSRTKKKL

[18] = target: Mitogen-activated protein kinase 7 (Homo sapiens) (UniProt Q13164); details: Compound concentration 1000.0 nM
[19] = target: Serine/threonine-protein kinase pim-1 (Homo sapiens) (UniProt P11309); details: Compound concentration 1000.0 nM
[20] = target: GABA-A receptor; anion channel (Rattus norvegicus) (UniProt O09028+P15431+P18506+P18508+P19969+P20236+P23574+P23576+P28471+P28473+P30191+P62813+P63079+P63138+Q91ZM7+Q9ES14); details: Compound concentration 10.0 uM
[21] = target: Serine/threonine-protein kinase PAK 6 (Homo sapiens) (UniProt Q9NQU5); details: Compound concentration 1000.0 nM
[22] = target: Tyrosine-protein kinase Lck (Homo sapiens) (UniProt P06239); details: Compound concentration 1000.0 nM
[23] = target: Eukaryotic translation initiation factor 2-alpha kinase 1 (Homo sapiens) (UniProt Q9BQI3); details: Compound concentration 1000.0 nM
[24] = target: Hepatocyte growth factor receptor (Homo sapiens) (UniProt P08581); details: Compound concentration 1000.0 nM
[25] = target: Serine/threonine-protein kinase PAK 4 (Homo sapiens) (UniProt O96013); details: Compound concentration 1000.0 nM
Sequence of Serine/threonine-protein kinase PAK 4 (Homo sapiens) (O96013 whole entry, looked up): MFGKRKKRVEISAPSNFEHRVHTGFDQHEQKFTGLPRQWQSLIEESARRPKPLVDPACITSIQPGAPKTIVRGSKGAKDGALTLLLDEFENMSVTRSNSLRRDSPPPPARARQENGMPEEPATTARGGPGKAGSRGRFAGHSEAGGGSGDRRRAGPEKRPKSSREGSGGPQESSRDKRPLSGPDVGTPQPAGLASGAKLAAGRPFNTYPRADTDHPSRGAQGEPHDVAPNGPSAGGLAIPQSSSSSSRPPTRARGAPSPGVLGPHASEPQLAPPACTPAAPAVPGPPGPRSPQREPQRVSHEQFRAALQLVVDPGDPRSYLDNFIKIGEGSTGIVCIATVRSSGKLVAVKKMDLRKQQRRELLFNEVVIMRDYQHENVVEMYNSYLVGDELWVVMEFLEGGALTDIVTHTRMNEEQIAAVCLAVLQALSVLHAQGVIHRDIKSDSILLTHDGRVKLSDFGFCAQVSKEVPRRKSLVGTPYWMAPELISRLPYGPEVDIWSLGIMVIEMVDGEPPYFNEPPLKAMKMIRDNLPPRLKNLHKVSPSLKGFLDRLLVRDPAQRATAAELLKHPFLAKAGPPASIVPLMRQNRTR

[26] = target: Activin receptor type-2A (Homo sapiens) (UniProt P27037); details: Compound concentration 1000.0 nM
[27] = target: D(2) dopamine receptor (Homo sapiens) (UniProt P14416); details: Compound concentration 10.0 uM
[28] = target: STE20-like serine/threonine-protein kinase (Homo sapiens) (UniProt Q9H2G2); details: Compound concentration 1000.0 nM
[29] = target: Calcium-dependent protein kinase 1 (Plasmodium falciparum) (UniProt P62344); details: Compound concentration 1000.0 nM
[30] = target: Serine/threonine-protein kinase Chk2 (Homo sapiens) (UniProt O96017); details: Compound concentration 1000.0 nM
Sequence of Serine/threonine-protein kinase Chk2 (Homo sapiens) (O96017 whole entry): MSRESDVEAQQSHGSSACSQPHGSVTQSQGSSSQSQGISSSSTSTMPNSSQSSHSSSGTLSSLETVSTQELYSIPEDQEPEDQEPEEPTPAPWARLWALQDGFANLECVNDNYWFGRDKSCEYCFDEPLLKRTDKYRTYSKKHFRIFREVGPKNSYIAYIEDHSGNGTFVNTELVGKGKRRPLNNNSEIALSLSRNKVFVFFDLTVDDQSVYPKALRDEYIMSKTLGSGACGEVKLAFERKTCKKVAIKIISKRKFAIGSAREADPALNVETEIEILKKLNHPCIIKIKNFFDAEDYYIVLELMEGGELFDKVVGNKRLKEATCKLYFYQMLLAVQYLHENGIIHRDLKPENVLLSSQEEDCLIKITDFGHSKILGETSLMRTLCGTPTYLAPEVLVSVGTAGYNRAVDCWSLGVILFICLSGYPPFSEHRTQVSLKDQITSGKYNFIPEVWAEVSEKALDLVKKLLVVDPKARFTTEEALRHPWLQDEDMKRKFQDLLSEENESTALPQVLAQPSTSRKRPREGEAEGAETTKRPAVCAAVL

[31] = target: Serine/threonine-protein kinase LATS1 (Homo sapiens) (UniProt O95835); details: Compound concentration 1000.0 nM
Sequence of Serine/threonine-protein kinase LATS1 (Homo sapiens) (O95835 whole entry): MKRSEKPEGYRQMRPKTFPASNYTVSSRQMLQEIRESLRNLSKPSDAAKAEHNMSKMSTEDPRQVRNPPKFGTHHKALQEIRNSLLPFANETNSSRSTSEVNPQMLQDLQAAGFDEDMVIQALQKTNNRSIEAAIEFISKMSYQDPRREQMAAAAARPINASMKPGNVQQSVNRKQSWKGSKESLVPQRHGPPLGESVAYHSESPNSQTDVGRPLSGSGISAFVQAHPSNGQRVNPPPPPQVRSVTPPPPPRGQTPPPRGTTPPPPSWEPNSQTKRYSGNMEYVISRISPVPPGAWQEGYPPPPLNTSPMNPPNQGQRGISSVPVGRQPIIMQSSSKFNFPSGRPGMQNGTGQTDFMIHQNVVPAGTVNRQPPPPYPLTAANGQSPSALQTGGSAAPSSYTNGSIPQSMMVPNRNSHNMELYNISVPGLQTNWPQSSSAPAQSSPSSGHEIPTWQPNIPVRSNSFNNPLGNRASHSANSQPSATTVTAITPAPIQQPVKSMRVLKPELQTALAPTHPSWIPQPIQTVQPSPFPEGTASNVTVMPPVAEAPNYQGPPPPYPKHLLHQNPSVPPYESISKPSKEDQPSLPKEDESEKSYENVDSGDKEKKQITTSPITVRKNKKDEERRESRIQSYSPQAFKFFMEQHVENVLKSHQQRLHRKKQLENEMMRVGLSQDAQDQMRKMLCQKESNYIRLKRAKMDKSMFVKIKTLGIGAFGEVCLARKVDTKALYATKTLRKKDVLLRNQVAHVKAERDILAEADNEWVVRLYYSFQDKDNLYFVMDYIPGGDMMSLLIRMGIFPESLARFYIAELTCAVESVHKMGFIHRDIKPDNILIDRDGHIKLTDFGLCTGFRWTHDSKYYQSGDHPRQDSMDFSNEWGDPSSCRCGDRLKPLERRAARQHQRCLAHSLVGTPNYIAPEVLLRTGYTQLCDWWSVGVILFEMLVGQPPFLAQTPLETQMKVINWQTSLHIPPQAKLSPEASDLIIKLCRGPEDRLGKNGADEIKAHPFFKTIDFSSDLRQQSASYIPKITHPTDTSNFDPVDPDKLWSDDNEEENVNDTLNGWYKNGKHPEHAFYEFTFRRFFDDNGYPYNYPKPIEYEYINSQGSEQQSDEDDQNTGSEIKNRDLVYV

[32] = target: 5-hydroxytryptamine receptor 2B (Homo sapiens) (UniProt P41595); test: Serotonin 5-HT2b (human) CEREP ligand profiling; details: Compound concentration 10.0 uM
[33] = test system: Hepatocyte growth factor receptor (Homo sapiens), P08581 [Y1235D]; details: Compound concentration 1000.0 nM
[34] = target: Casein kinase I isoform gamma-2 (Homo sapiens) (UniProt P78368); details: Compound concentration 1000.0 nM
[35] = target: Wee1-like protein kinase 2 (Homo sapiens) (UniProt P0C1S8); details: Compound concentration 1000.0 nM
[36] = target: Dual specificity protein kinase TTK (Homo sapiens) (UniProt P33981); details: Compound concentration 1000.0 nM
[37] = target: Myosin light chain kinase family member 4 (Homo sapiens) (UniProt Q86YV6); details: Compound concentration 1000.0 nM
Sequence of Myosin light chain kinase family member 4 (Homo sapiens) (Q86YV6 whole entry): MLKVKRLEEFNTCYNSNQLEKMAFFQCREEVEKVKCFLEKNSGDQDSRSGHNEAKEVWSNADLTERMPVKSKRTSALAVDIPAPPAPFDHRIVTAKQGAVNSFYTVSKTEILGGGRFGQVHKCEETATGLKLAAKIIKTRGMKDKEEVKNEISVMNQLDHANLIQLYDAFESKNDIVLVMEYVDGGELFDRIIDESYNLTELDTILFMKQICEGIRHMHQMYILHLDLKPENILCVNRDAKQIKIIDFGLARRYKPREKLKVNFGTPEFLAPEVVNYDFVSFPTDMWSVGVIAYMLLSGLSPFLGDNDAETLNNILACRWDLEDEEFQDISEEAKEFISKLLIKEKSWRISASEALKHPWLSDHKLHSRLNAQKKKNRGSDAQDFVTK

[38] = target: Serine/threonine-protein kinase TAO2 (Homo sapiens) (UniProt Q9UL54); details: Compound concentration 1000.0 nM
[39] = target: Ribosomal protein S6 kinase alpha-5 (Homo sapiens) (UniProt O75582); details: Compound concentration 1000.0 nM
[40] = target: Receptor-interacting serine/threonine-protein kinase 1 (Homo sapiens) (UniProt Q13546); details: Compound concentration 1000.0 nM
Sequence of Receptor-interacting serine/threonine-protein kinase 1 (Homo sapiens) (Q13546 whole entry): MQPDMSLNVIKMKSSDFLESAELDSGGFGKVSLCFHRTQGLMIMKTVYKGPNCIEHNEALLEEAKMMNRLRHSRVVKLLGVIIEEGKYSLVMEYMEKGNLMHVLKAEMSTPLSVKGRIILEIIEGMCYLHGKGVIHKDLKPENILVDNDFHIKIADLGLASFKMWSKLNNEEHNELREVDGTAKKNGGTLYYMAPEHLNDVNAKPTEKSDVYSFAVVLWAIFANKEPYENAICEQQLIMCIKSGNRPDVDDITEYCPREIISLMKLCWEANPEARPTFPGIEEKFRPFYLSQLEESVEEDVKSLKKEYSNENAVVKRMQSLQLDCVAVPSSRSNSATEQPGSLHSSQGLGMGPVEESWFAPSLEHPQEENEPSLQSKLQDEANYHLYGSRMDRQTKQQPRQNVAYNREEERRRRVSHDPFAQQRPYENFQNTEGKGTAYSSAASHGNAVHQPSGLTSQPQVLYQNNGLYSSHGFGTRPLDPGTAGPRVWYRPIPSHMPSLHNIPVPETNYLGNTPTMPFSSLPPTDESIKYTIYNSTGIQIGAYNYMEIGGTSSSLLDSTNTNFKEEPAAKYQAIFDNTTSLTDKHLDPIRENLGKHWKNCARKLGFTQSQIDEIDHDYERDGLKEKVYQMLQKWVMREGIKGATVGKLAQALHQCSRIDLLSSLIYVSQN

[41] = test system: Serine/threonine-protein kinase B-raf (Homo sapiens), P15056 [V600E]; details: Compound concentration 1000.0 nM
[42] = test system: Phosphatidylinositol 4,5-bisphosphate 3-kinase catalytic subunit alpha isoform (Homo sapiens), P42336 [M1043I]; details: Compound concentration 1000.0 nM
[43] = target: Cyclin-dependent kinase 11A (Homo sapiens) (UniProt Q9UQ88); details: Compound concentration 1000.0 nM
Sequence of Cyclin-dependent kinase 11A (Homo sapiens) (Q9UQ88 whole entry): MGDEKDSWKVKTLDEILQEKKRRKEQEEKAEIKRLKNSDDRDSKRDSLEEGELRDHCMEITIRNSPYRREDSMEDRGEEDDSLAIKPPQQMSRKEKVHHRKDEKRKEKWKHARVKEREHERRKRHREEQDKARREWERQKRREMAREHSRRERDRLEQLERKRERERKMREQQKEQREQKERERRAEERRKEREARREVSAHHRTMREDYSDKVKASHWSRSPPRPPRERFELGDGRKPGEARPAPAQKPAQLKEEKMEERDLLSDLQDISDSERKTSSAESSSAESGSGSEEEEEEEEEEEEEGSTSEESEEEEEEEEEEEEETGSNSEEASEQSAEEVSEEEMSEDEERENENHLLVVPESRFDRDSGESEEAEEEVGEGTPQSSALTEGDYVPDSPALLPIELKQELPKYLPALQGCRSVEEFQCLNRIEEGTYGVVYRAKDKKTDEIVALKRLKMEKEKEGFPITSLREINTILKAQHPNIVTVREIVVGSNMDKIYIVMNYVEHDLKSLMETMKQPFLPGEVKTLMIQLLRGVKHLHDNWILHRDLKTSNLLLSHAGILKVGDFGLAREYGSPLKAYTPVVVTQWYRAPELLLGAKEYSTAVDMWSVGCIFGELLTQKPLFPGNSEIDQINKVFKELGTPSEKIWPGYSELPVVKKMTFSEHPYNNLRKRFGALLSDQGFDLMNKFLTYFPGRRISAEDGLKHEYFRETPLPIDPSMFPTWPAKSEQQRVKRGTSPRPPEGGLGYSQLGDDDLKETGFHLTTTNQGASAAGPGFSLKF

[44] = target: MTNR1B (Cricetulus griseus) (UniProt G3H6N9); test: Melatonin 2 (hamster) CEREP ligand profiling; details: Compound concentration 10.0 uM

C[C@H](c1ccc(F)cc1)N(Cc1cccc(C(=O)O)c1)C(=O)c1cnc2ccccc2c1 [PF-05105679]
inactive: residual activity [1] 100% | residual activity [2] 80% | residual activity [3] 100% | residual activity [4] 69% | residual activity [5] 96% | residual activity [6] 100% | residual activity [7] 100% | residual activity [8] 100% | residual activity [9] 93% | residual activity [10] 82% | residual activity [11] 97% | residual activity [12] 75% | residual activity [13] 100% | residual activity [14] 90% | residual activity [15] 100% | residual activity [16] 91% | residual activity [17] 100% | residual activity [18] 78% | residual activity [19] 100% | inhibition [20] 20.8% | residual activity [21] 100% | residual activity [22] 100% | residual activity [23] 84% | residual activity [24] 100% | residual activity [25] 100% | residual activity [26] 100% | inhibition [27] 7.61% | residual activity [28] 100% | residual activity [29] 100% | residual activity [30] 91% | residual activity [31] 100% | inhibition [32] 26% | residual activity [33] 100% | residual activity [34] 100% | residual activity [35] 100% | residual activity [36] 100% | residual activity [37] 99% | residual activity [38] 100% | residual activity [39] 100% | residual activity [40] 100% | residual activity [41] 100% | residual activity [42] 100% | residual activity [43] 100% | inhibition [44] 32%
